This is an account of results in paper PMC4522657, “Identification of a DYRK1A Inhibitor that Induces Degradation of the Target Kinase using Co-chaperone CDC37 fused with Luciferase nanoKAZ” (Scientific Reports, 2015).

Holding throughout (assay type): biochemical
The target of one test is T1, PHKG1 (Homo sapiens, UniProt Q16816).
T1 construct: purchased Carna Biosciences
The experiment in a line: Kinase panel, CaNDY 1 µM. As to conditions: CaNDY 1 µM relative to DMSO.

A further test concerns the target T2, Haspin (Homo sapiens, UniProt Q8TF76).
T2 sequence (Q8TF76 1-798): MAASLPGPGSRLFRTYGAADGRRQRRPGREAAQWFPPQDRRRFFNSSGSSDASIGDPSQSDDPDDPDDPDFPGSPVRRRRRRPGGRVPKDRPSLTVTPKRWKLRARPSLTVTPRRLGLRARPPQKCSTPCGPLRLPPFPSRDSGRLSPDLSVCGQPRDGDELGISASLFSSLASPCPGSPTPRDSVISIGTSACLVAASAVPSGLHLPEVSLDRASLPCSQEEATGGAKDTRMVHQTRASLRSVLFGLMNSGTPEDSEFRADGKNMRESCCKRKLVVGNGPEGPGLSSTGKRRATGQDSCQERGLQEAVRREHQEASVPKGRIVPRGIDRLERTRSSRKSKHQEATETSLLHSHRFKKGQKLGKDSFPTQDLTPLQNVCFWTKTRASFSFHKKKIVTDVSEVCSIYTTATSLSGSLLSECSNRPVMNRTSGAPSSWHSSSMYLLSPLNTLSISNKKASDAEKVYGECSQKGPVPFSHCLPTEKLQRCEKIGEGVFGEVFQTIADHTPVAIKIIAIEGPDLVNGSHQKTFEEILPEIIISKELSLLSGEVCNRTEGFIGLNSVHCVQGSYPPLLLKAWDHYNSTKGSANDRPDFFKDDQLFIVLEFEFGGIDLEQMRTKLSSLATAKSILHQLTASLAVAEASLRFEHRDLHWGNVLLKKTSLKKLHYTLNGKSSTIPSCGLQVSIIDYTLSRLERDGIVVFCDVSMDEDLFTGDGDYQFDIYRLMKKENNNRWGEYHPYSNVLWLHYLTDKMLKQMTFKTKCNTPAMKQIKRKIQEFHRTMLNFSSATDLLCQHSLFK
Kind of test: Kinase panel, CaNDY 1 µM. Also on record: purchased Carna Biosciences. From the text: (§1) Detailed information on the assay conditions is available on the website of Carna Biosciences (http://www.carnabio.com/english/index.html; Kobe, Japan). In brief, full-length human recombinant kinases were expressed using a baculovirus expression system as amino-terminal GST-fusion proteins, and purified by glutathione-Sepharose chromatography. The GenBank accession numbers of DYRK1A, DYRK1B, DYRK2, and DYRK3 were NP_001387.2, NP_004705.1, NP_003574.1, and NP_003573.2. Kinase activities were evaluated by Off-chip Mobility Shift Assay after reaction of 1 μM of the substrate DYRKtide-F with ATP (25 μM for DYRK1A, 50 μM for DYRK1B, 10 μM for DYRK2, and 5 μM for DYRK3). For each compound, a DMSO solution was diluted in assay buffer to yield a final concentration of 1% DMSO. After incubation for one hour at room temperature, substrate phosphorylation was analyzed by electrophoretic separation of the substrate and products using a Caliper LC3000 platform (Caliper Life Sciences, Mountain View, CA, USA). The phosphorylated product (P)/(P + substrate) ratio was calculated at each concentration of each small molecule and the percent inhibition was expressed relative to a control assay in the absence of the small molecule. […] The IC50 of each compound was calculated by interpolation on a log-concentration-response curve fitted with a four-parameter logistic equation.
(§2) All kinase assays were carried out at Carna Biosciences. The inhibitory map was made with Kinome Render[36].

The target of test [1] is T3, DYRK1B (Homo sapiens, UniProt Q9Y463). Kind of test: Kinase panel, CaNDY 1 µM. Set-up: purchased Carna Biosciences.
T3 sequence (Q9Y463 whole entry): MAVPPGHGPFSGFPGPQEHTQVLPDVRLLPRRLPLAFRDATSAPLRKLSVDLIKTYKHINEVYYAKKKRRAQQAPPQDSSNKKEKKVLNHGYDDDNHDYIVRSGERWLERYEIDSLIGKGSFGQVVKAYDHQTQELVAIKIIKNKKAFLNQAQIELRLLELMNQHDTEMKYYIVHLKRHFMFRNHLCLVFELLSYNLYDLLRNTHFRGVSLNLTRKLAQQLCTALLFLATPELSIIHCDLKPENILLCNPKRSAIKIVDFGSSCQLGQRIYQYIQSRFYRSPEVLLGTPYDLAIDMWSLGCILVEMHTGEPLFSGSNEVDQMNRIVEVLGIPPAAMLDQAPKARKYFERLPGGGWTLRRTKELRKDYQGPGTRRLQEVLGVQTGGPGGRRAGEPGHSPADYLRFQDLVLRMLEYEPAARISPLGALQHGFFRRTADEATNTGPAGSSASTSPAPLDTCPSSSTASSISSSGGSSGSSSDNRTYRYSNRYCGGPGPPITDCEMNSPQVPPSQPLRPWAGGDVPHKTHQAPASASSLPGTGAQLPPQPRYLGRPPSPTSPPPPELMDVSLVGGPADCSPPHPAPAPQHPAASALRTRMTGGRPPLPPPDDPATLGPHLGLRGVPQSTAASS
From the text: as §1, §2

The target in another test is DYRK1A (Homo sapiens, UniProt Q13627). Kind of test: In vitro kinase assay, substrate DYRKtide-F. Also on record: full-length human recombinant kinases were expressed using a baculovirus expression system as amino-terminal GST-fusion proteins; GST (N); purchased Carna Biosciences; host or cells: baculovirus expression system. As to conditions: 25 μM ATP, 1 μM DYRKtide-F; read-out: IC50, substrate phosphorylation.
From the text: as §1, with “Kinase activities were evaluated by Off-chip Mobility Shift Assay after reaction of 1 μM of the substrate DYRKtide-F with ATP (25 μM for DYRK1A, 50 μM for DYRK1B, 10 μM for DYRK2, and 5 μM for DYRK3).” left out

The target of test [2] is T3, DYRK1B. The experiment in a line: In vitro kinase assay, substrate DYRKtide-F. Also on record: full-length human recombinant kinases were expressed using a baculovirus expression system as amino-terminal GST-fusion proteins; GST (N); purchased Carna Biosciences; host or cells: baculovirus expression system. The note with it: 50 μM ATP, 1 μM DYRKtide-F.
From the text: as §1, with “Kinase activities were evaluated by Off-chip Mobility Shift Assay after reaction of 1 μM of the substrate DYRKtide-F with ATP (25 μM for DYRK1A, 50 μM for DYRK1B, 10 μM for DYRK2, and 5 μM for DYRK3).” left out

In another test the target is T4, MAP3K5_Cascade (Homo sapiens, UniProt Q99683).
T4 construct: purchased Carna Biosciences
T4 sequence (Q99683 whole entry): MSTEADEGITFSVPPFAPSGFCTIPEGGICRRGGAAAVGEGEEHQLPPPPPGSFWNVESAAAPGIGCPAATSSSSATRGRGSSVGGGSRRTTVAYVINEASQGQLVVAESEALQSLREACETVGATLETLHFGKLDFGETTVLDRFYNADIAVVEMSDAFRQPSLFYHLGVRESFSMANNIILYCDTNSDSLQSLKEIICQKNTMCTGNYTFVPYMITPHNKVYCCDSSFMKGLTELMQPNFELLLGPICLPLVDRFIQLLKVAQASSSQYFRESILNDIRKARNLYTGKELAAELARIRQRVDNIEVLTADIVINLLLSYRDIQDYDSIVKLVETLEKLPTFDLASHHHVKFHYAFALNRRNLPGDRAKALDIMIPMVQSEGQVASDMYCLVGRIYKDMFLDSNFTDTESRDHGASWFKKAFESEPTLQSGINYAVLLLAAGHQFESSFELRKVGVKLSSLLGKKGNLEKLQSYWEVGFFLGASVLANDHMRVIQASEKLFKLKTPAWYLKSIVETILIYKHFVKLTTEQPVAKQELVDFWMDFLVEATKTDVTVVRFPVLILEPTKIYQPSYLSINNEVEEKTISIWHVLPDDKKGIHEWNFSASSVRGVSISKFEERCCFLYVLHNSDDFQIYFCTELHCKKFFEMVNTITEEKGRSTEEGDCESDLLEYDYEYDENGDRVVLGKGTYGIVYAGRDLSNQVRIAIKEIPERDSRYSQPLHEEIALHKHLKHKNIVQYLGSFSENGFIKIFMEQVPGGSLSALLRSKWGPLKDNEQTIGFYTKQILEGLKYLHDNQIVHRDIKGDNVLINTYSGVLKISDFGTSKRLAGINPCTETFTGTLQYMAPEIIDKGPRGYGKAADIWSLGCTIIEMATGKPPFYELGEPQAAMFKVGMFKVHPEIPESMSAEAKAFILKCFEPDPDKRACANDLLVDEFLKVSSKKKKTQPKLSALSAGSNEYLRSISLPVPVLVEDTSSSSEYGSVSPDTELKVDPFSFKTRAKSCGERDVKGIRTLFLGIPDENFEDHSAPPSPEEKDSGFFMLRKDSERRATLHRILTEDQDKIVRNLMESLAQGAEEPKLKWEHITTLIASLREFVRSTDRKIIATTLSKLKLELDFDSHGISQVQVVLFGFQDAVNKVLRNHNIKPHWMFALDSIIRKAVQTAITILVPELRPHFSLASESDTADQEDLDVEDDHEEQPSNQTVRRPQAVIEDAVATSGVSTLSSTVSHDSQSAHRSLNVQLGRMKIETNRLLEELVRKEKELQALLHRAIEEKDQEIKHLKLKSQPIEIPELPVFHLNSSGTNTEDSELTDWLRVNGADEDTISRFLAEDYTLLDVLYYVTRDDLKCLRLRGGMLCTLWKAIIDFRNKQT
The experiment in a line: Kinase panel, CaNDY 1 µM. The note with it: CaNDY 1 µM relative to DMSO.

For a further test, the target named is T5, RET(S891A) (Homo sapiens, UniProt P07949, S891A).
T5 construct: purchased Carna Biosciences
T5 sequence (P07949 29-1114 S891A): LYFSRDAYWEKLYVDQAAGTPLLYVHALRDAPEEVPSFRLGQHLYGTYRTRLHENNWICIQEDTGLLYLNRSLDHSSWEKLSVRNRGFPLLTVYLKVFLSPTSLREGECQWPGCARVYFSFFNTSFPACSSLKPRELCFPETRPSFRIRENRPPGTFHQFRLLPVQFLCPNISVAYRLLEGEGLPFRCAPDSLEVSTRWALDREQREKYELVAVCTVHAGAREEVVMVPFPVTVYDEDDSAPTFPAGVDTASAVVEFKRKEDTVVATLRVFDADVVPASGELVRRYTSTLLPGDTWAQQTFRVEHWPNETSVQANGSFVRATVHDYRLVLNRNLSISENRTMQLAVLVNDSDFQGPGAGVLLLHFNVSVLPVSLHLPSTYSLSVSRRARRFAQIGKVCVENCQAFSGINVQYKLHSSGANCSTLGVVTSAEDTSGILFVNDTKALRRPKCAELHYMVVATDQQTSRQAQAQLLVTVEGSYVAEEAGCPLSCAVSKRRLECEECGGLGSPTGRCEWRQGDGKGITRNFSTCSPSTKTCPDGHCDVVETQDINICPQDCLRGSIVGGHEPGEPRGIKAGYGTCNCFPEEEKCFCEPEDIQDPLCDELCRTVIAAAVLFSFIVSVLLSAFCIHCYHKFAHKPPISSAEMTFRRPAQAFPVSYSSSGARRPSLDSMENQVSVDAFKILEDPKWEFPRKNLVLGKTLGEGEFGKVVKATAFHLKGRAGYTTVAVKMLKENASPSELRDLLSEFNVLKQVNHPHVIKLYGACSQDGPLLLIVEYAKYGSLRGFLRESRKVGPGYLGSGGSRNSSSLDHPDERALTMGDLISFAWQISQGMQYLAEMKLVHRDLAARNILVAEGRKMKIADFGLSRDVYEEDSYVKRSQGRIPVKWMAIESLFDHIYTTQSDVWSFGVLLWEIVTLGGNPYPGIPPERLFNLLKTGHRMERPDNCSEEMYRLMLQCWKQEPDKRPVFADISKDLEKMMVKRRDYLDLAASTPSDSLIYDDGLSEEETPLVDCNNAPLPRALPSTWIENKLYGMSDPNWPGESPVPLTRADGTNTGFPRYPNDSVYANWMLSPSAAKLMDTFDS
Kind of test: Kinase panel, CaNDY 1 µM. As to conditions: CaNDY 1 µM relative to DMSO.

Setting [3] is: 1 μM CaNDY, read-out: percentage inhibition.

Structures are written as SMILES.

T1 sequence (Q16816 whole entry): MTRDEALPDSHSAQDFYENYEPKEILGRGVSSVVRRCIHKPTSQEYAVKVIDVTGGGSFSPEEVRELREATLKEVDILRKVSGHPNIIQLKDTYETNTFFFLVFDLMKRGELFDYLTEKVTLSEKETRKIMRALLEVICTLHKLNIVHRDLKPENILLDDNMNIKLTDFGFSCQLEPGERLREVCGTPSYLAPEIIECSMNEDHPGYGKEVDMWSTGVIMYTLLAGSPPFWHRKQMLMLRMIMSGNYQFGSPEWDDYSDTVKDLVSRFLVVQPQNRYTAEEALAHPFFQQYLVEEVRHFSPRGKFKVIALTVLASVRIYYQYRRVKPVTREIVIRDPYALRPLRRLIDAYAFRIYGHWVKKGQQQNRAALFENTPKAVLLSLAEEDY

As for `[H]/N=C1/NC(=O)C(=Cc2ccc3c(c2)CCO3)S1` [CaNDY, (Z)-5-[(2,3-dihydrobenzofuran-5-yl)methylene]-2-iminothiazolidin-4-one], the remaining activity at 1 µM worked out at 92.1% at PHKG1; 3.8% at Haspin (CaNDY 1 µM relative to DMSO); 3.7% on DYRK1B [1] (CaNDY 1 µM relative to DMSO); 103% on MAP3K5_Cascade; 103% on RET(S891A). Moreover, the inhibition at 1 µM at Haspin (setting [3]) and at DYRK1B [1] (setting [3]) was above 90% throughout. Besides, the values for the IC50 on DYRK1A and at DYRK1B [2] were 7.9 nM and 24.1 nM, respectively.
